Results as given in PubChem BioAssay AID2305 (GlaxoSmithKline (GSK), 2010).
Values joined by “and” are separate entries in the source; they are usually repeats but may differ in a detail not shown here. Identical values can stand only once.

tested on: P. falciparum 3D7 growth, pLDH absorbance; assay: blood-stage malaria parasite growth potency – strain 3D7, dose response (AID 2305)

SMILES | IC50
CC(C)(C)c1ccc(S(=O)(=O)Nc2ccccc2N2CCOCC2)cc1 | 680 nM
CN(C)c1ccc(OCCCCCCOc2ccccc2)cc1 | 500 nM
CCCCOC(=O)NCCCC[C@H](NC(=O)OC(C)(C)C)C(=O)N[C@H](C(=O)OC(c1ccccc1)c1ccccc1)[C@H]1O[C@@H](n2ccc(=O)[nH]c2=O)[C@@H]2OC(C)(C)O[C@@H]21 | 1090 nM
CCCCN(CCCC)C(=O)CC(O)c1cc2c(Cl)cc(Cl)cc2c2cc(C(F)(F)F)ccc12 (stereo not drawn) | 1210 nM
CCCCCN1CCC(NS(=O)(=O)c2cccc(C(=O)Nc3cccc(C(F)(F)F)c3)c2)C1 (stereo not drawn) | 830 nM
CC[C@H]1CN2CC[C@H]1C[C@H]2[C@H](O)c1cc(N2CCCC(CO)C2)nc2ccc(OC)cc12 (stereo partly drawn) | 80 nM
Nc1nccc2ccc(-c3cccc(OCc4ccccc4)c3)cc12 | 290 nM
Oc1ccc(Cc2ccccc2)cc1CNC1CCCCC1 | 190 nM
COc1ccc(C2N=C(N)N=C(N)N2c2ccc(Cl)cc2)cc1OC (stereo not drawn) | 1000 nM
c1ccc([C@H]2CN3CCSC3=N2)cc1 | 620 nM
CC(C)(C)OC(=O)c1c(NC(=O)/C=C/c2ccc(O)c(O)c2)sc2c1CCCC2 | 820 nM
OC(CNc1ccnc(Nc2cccc(CCN3CCOCC3)c2)n1)c1ccccc1 (stereo not drawn) | 590 nM
COc1ccc2nc3cc(Cl)ccc3c(Nc3ccc(Oc4ccc(Nc5c6ccc(Cl)cc6nc6ccc(OC)cc56)cc4)cc3)c2c1 | 860 nM
O=[N+]([O-])c1ccc2nccnc2c1 | 1070 nM
C=CCN(c1ccc(OC)cc1)S(=O)(=O)c1ccc(Cl)c(C(=O)Nc2cccc(C#N)c2)c1 | 580 nM
COc1ccc(NC(=O)c2c(NC(=O)c3cccs3)sc3c2CCCC3)cc1 | 450 nM
COc1ccc2ncc(F)c(CCN3C[C@H](CNCc4ccc5oc(=O)ccc5c4)[C@H](O)C3)c2n1 | 950 nM
CCOc1cc(Cc2cnc(N)nc2N)cc(OC)c1OC | 910 nM
COc1cccc2cc(C(=O)N[C@@H](CC(C)C)C(=O)N[C@H](/C=N/N3CCCC3=O)Cc3ccccc3)oc12 | 560 nM
O=C(Nc1ccc(Cl)c(C(F)(F)F)c1)c1ccc(C(=O)Nc2ccc(Cl)c(C(F)(F)F)c2)cc1 | 1000 nM
CCCCCCc1cc2cc(-c3csc(C=Cc4ccccc4)n3)c(=O)oc2cc1O | 970 nM
COc1cc(C(=O)N2CC[C@@H](CCN3CCC4(CC3)CN(S(C)(=O)=O)c3ccccc34)C[C@H]2Cc2ccc(Cl)c(Cl)c2)cc(OC)c1OC | 840 nM
O=C(NC1CC1)c1cnc(N2CCC(COc3cccc(F)c3)CC2)c(Cl)c1 | 1200 nM
Cc1sc(N2CCN(C)CC2)nc1C(=O)Nc1ccc(F)cc1C(F)(F)F | 1070 nM
Cc1cn(CC(=O)Nc2cccc(-c3cccc(-c4nc5ccc(C(F)(F)F)cc5[nH]4)c3)c2)c(=O)[nH]c1=O | 680 nM

SMILES | IC50
Cc1c(C)c2c(c(C)c1O)CC[C@](C)(C(=O)NC1CCC(CN3CCC(c4c[nH]c5ccccc45)CC3)CC1)O2 (stereo partly drawn) | 880 nM and 1120 nM
CCOc1ccc(-n2nc3c(Cl)nnc(-c4ccccc4)c3c2-c2ccccc2)cc1 | 230 nM
CCOc1ccc(NC(=O)c2cccc(CN3CCCN(Cc4cccc(O)c4)CC3)c2)cc1 | 1080 nM
Cc1cc(Nc2cccc(C(F)(F)F)c2)nc(Nc2cccc(C(F)(F)F)c2)n1 | 640 nM
Cc1cc(=O)c(-c2ccc(Oc3ccc(F)cc3)cc2)c(C)[nH]1 | 970 nM
O=C(Nc1ccc(C(F)(F)F)cc1)Nc1cccc([N+](=O)[O-])c1 | 870 nM
CN(Cc1ccccc1)C(=O)c1nn(CCCN2CCC(N3CCCC3)CC2)cc1-c1ccc(Cl)c(Cl)c1 | 770 nM
CSc1cccc(NC(=O)c2cc3ccccc3oc2=O)c1 | 830 nM
CC(Oc1ccc(Cl)cc1)C(=O)Nc1cc(C(F)(F)F)ccc1N1CCOCC1 (stereo not drawn) | 530 nM
Cc1cccc2[nH]c(-c3ccc(-c4cccc(CN5CCCC5CN)c4)s3)nc12 (stereo not drawn) | 870 nM
CS(=O)(=O)NCCCNCc1cccc(-c2cccc(-c3nc4ccc(C(F)(F)F)cc4[nH]3)c2)c1 | 470 nM
COc1cc(OC)cc(-c2nn(-c3ccc([N+](=O)[O-])cc3Cl)c(=S)n2CC2CCCO2)c1 (stereo not drawn) | 960 nM
CN1CCN(C(=O)CN2CCC3(CCC2=O)NC(=O)c2ccccc2O3)CC1 (stereo not drawn) | 210 nM
CCc1ccc(N2C(=O)C3C(Cc4ccc(OC(C)(C)C)cc4)NC4(C(=O)N(Cc5ccccc5)c5ccc(F)cc54)C3C2=O)cc1 (stereo not drawn) | 800 nM
COc1cc2nccc(Nc3cccc(Oc4ccccc4)c3)c2cc1OC | 640 nM
CS(=O)(=O)c1cccc(-c2cnc(N)c3cc(-c4cccc(F)c4)ccc23)c1 | 860 nM
c1cncc(-c2cc(N3CCc4ccccc4C3)nc(-c3ccncc3)n2)c1 | 40 nM
CCN(CC)CCCNCc1ccc(-c2ccc(C(F)(F)F)cc2)cc1 | 990 nM
COc1ccccc1CNC(=O)c1cc(C2CC2)nc2c1cnn2C(C)C | 1020 nM
COc1ccc(C(=O)CCC(=O)N(CCSC(C)(C)C)Cc2ccc(-c3ccc(CNCCc4ccc(S(C)(=O)=O)cc4)cn3)cc2)cc1F | 630 nM
O=C(Nc1ccc(OC(F)(F)F)cc1)NC1CCN(c2ccnc3ccccc23)CC1 | 300 nM
COc1cc2nc(NCCc3ccccc3)nc(NCc3cc(C)no3)c2cc1OC | 240 nM
CCCC1N=C(N)N=C(N)N1c1ccc(Cl)cc1 (stereo not drawn) | 50 nM
Nc1nc(Nc2ccc(Cl)cc2)nc2ccccc12 | 730 nM
CC(C)CNCc1cccc(-c2ccc(CNc3ccc(C(=O)c4ccccc4)cc3)cc2)c1 | 760 nM

SMILES | IC50
Nc1ncc(-c2ccsc2)cc1-c1nc2ccccc2[nH]1 | 850 nM
NC1=NC(CCc2ccccc2)N(c2ccccc2)C(N)=N1 (stereo not drawn) | 80 nM
CC(=O)c1c(Nc2c(C)cc(C)cc2C)oc(C)cc1=O | 480 nM
COc1cc(Cc2cnc(N)nc2N)cc(OCCNC(=O)OCc2ccccc2)c1OC | 920 nM
FC(F)(F)c1ccc2nc(-c3ccc(-c4cccc(CNCc5cnn(-c6ccccc6)n5)c4)cc3)[nH]c2c1 | 650 nM
CCC(CSC1CCCCC1)N(C)CCN(C)C(CC)CSC1CCCCC1 (stereo not drawn) | 310 nM
O=[N+]([O-])c1ccc(Oc2c(Cl)cc(S(=O)(=O)NC3CCC(CN4CCC(c5c[nH]c6ccccc56)CC4)CC3)cc2Cl)c(Cl)c1 (stereo not drawn) | 760 nM
Cc1ccc(C2CCN(CCCCNC(=O)c3ccc(NC(=O)c4ccc(Cl)cc4)cc3)CC2)c(C)c1 | 840 nM
CC(=O)c1ccc(-c2ccc(C(=O)NCCCCN3CCC(c4ccc5c(c4OCC(N)=O)CCCC5)CC3)cc2)s1 | 890 nM
Cc1cc(NCCc2ccc(O)cc2)nc(NCC(c2ccccc2)c2ccccc2)n1 | 320 nM
O=C(NCc1ccc(F)cc1)c1ccc(N2CCN(c3ccncc3)CC2)cn1 | 890 nM
Cc1nnc2c(NC(=O)NC3CCCC3)cc3cc(-c4ccc(CN(C)C)cc4)ccc3n12 | 1470 nM
NC(=O)c1ccsc1NC(=O)CNC(c1ccccc1)c1ccc(Cl)cc1 (stereo not drawn) | 260 nM
CN(c1cc(NC(=O)c2ccccc2)ccn1)C1CCN(Cc2cccc(F)c2)CC1 | 740 nM
CC(C)(C)c1nn(-c2ccccc2)c2[nH]c(=O)c(CNCc3ccc4c(c3)OCO4)cc12 | 1050 nM
CC(=O)c1c(C)[nH]c(C(=O)Nc2ccc(-c3nc4ccc(C)cc4s3)cc2)c1C | 840 nM
CCOc1ccccc1[C@H]1[C@H](C(=O)C(C)(C)C)N2c3ccc(Br)cc3C=CC2C12C(=O)c1ccccc1C2=O (stereo partly drawn) | 850 nM
Oc1ccc2[nH]cc(C3CCN(CCCCCCCCCN4CCC(c5c[nH]c6ccc(O)cc56)CC4)CC3)c2c1 | 310 nM
S=C(Nc1ccccc1Cl)NC1CCC(CN2CCC(c3c[nH]c4ccccc34)CC2)CC1 (stereo not drawn) | 1050 nM
OCC(c1ccccc1)n1c(COc2ccc(Cl)cc2)nc2c(OCCCN3CCCCC3)cccc21 (stereo not drawn) | 920 nM
CC[C@@H]([C@@H](CC(C)C)C(=O)N[C@@H](CCCCNC(=O)OCc1ccccc1)C(=O)Nc1ccccn1)N(O)C=O | 110 nM
CN(C)CCCSc1ccccc1NC(=O)C=Cc1ccccc1 | 960 nM
COc1ccc(CCNC(=O)c2ccc(-n3cc(NC(=O)c4cccnc4)cn3)cc2)cc1OC | 1070 nM
COc1cc2nc(N(C)C3CCN(Cc4ccccc4)CC3)nc(N)c2cc1OC | 330 nM
COc1ccc2nccc([C@@H](O)CN3CCC(NC/C=C/c4cccnc4)CC3)c2c1 | 620 nM

SMILES | IC50
CCCCCCCOc1ccc(NC(=O)Nc2ccc(Cn3ncc(N4CCCNCC4)c(Cl)c3=O)cc2)cc1 | 920 nM
COc1ccc(-c2ccc(NC(=O)c3ccc(C#N)cc3)cc2)cc1CN1CCN(C)CC1 | 720 nM
COc1ccc(S(=O)(=O)NC2CCN(CCNC(=O)Nc3cc(C)nc4ccccc34)C2)cc1 (stereo not drawn) | 1190 nM
COc1cc(F)c2ncc(Cl)c(CCN3CCC(NCc4ccc5c(c4)NC(=O)CS5)CC3)c2c1 | 310 nM
COc1ccc(CN(C)C(=O)CCNS(=O)(=O)c2ccc3c(c2)OCCCO3)cc1F | 660 nM
CCN(CC(C)O)C(=O)c1ccc(-c2cccc(-c3nc4c(C)cccc4[nH]3)c2)cc1 (stereo not drawn) | 640 nM
CCCCCCCN1CC[C@H](CC(=O)Nc2ccnc3ccc(OC)cc23)[C@@H](CC)C1 | 590 nM
CC(C)(CNCc1cc(Cl)cc(Cl)c1)c1nc(-c2ccc(Cl)c(O)c2)c(-c2ccnc(N)n2)[nH]1 | 1010 nM
Cc1cc(CN2CCC(C(=O)Nc3ccc(-c4nc5ccccc5[nH]4)cc3)CC2)oc1C | 1450 nM
CC(C)C(=O)NC(c1cccs1)c1cc(Cl)c2cccnc2c1O (stereo not drawn) | 580 nM
COC(=O)c1ccc(CCCNCC(O)c2cccc(C(F)(F)F)c2)cc1 (stereo not drawn) | 800 nM
CC(=O)Nc1ccc(CN2CCC(NC(=O)c3ccc(-c4cccc(F)c4)s3)CC2)cc1 | 1430 nM
CS(=O)(=O)Nc1ccc2[nH]cc(C3C[C@H]4CC[C@@H](C3)N4CC3CCC(NC(=O)/C=C/c4ccc(Cl)c(Cl)c4)CC3)c2c1 (stereo partly drawn) | 870 nM
Nc1ncc(-c2ccc(Cl)c(Cl)c2)c(N)n1 | 730 nM
CCCc1cc(Cc2cnc(N)nc2N)ccc1OCCCCCC(=O)OCC | 500 nM
O=c1cc(NCCCNCc2cc(Cl)cc(Cl)c2OCc2ccccc2)[nH]c2ccccc12 | 1030 nM
CCCC(C)Nc1nc(C)cc(NCCC(=O)Nc2ccccc2)n1 (stereo not drawn) | 960 nM
O=C(Nc1ccc(OC(F)(F)F)cc1)Nc1ccc([N+](=O)[O-])cc1 | 880 nM
Cc1ccc(Nc2nccc(Nc3ccc4c(c3)nc(Nc3cc(C(C)(C)C)on3)n4C)n2)cc1S(C)(=O)=O | 600 nM
O=C1C=Cc2ccccc2/C1=C/c1sc(=NCc2ccccc2)n(Cc2ccccc2)c1O | 160 nM
Cc1ccc2c(=O)c3cc(C)ccc3[nH]c2c1 | 420 nM
Cc1cccc2[nH]c(-c3ccc(-c4ccc(CN5CCCC5CN)cc4)cc3)nc12 (stereo not drawn) | 810 nM
Cc1cc2nc(-c3cccc(C(=O)NC4CCN(Cc5ccccc5)CC4)c3)[nH]c2cc1C | 830 nM
